Tested on: human thrombin
Assay: kinetic analysis of chromogenic substrate hydrolysis by thrombin
Format: biochemical
Conditions: substrate 0.1 M in 0.17 M Tris buffer, pH 7.4; human thrombin 0.63 mg/ml; 37° C.; monitored at 405 nm
Description: The enzyme and the substrate are mixed in a buffer solution, and the reaction is followed spectrophotometrically for 2 to 30 minutes. The concentration of substrate [S] is varied, whereas the enzyme concentration [E] is kept constant. If the extinction (OD) (=optical density) is plotted in a coordinate system as a function of time, a curve is obtained the tangent of which (difference in extinction per minute, Δ OD/minute, from which the quantity in μmoles of pNA/min(v) can be calculated) at time zero corresponds to the initial course of the hydrolysis. By means of this tangent the initial rate of the hydrolysis can be determined.
If l/v is plotted against l/[S], a Lineweaver-Burk diagram is obtained from which vmax and Km can be determined graphically. Thus Km and kcat can be determined.

Km: 920 µM
Substance: sarcosylprolylarginine-p-nitrophenylanilide hydrochloride [Sar-Pro-Arg-pNA.2HCl]
kcat: 158 s⁻¹

From US4216142A, “Chromogenic substrates for the proteolytic enzymes” (Abbott Laboratories, priority 1978, dated 1980)
